Reference: patent publication US9211310B2, “Use of a Chinese medicine composition in preparing medicaments for treating secondary prevention of myocardial infarction” (TASLY PHARMACEUTICAL GROUP CO., LTD, priority 2010, dated 2015)

System: patients after acute myocardial infarction
Test: Angina pectoris score, total and single (frequency/attack times, duration, pain degree, dose of nitroglycerin), same clinical trial
Format: in vivo, human
Design: total angina pectoris score, Md / total angina pectoris score, Mean: scale not given here
Conditions: for attack times score, patients (%): Baseline; for distribution of total angina pectoris score: Medium, number of patients / distribution of total angina pectoris score: Medium, percentage of patients / distribution of total angina pectoris score: Mild, number of patients / distribution of total angina pectoris score: Mild, percentage of patients / distribution of total angina pectoris score: Severe, number of patients / distribution of total angina pectoris score: Severe, percentage of patients / patients with dose of nitroglycerin score 0 (%) / patients with dose of nitroglycerin score 1 (%) / patients with dose of nitroglycerin score 2 (%) / patients with dose of nitroglycerin score 4 (%) / patients with dose of nitroglycerin score 6 (%) / total angina pectoris score, Md / total angina pectoris score, Mean / change of total angina pectoris score, Md / change of total angina pectoris score, Mean / patients with change of dose of nitroglycerin score 0 (%) / patients with change of dose of nitroglycerin score 1 (%) / patients with change of dose of nitroglycerin score 2 (%) / patients with change of dose of nitroglycerin score 4 (%) / patients with change of dose of nitroglycerin score 6 (%) / patients with change of dose of nitroglycerin score −1 (%) / patients with change of dose of nitroglycerin score −2 (%) / patients with change of dose of nitroglycerin score −3 (%) / patients with change of dose of nitroglycerin score −4 (%) / patients with change of dose of nitroglycerin score −6 (%) / patients with change of dose of nitroglycerin score −5 (%): FAS
Description: In order to better understand the present invention, a multi-center, randomized, double-blind, double-dummy and positive drug controlled trial had been conducted. 3508 patients who were in accordance with the diagnostic standards of AMI for 28 days to 2 years and differentiated as Qi deficiency and blood stagnation syndrome by TCM were studied. 0.5 g Chinese medicine composition prepared by the method of EXAMPLE 1 (Coded as QSYQ) was administrated half an hour after meal, 3 times per day. Aspirine was used as a positive drug. The patients were treated for 1 year and observed for 6 months.
They included the overall survival time, angina pectoris score, TCM symptom score and life quality score, where angina pectoris score, TCM symptom score and life quality score were evaluated at randomization, in 1st, 3rd, 6th, 9th, 12th month after treatment and 18th month after follow-up.
(§1) Total angina pectoris score was described on every observation period and the change of observation in comparison with baseline. T-test or Wilcoxon rank sum test were used for inter-group comparison. Grade of total score was evaluated on every observation and Wilcoxon rank sum test was used for inter-group comparison. T-test and Pairing signed rank sum test were used for analyzing the change of total score on every observation between groups in comparison with the baseline.
(§2) Single angina pectoris score was depicted on every observation time-point and the change of observation in comparison with baseline. Wilcoxon rank sum test was used for inter-group comparison. Pairing signed rank sum test was used for analyzing the change of total score on every observation between groups in comparison with the baseline.
as §1, with “comparison with the baseline. T-test” for “comparison with baseline. T-test”
as §2, with “described” for “depicted”

[1] = 1 month after treatment-baseline
[2] = 3 months after treatment-baseline
[3] = 6 months after treatment-baseline
[4] = 9 months after treatment-baseline

Question: Which results are given for `CC(=O)Oc1ccccc1C(=O)O` [Control group, aspirine]?
Answer: attack times score, patients (%) (score 1, PP): (8.95%); attack times score, patients (%) (score 2, FAS): (53.24%); attack times score, patients (%) (score 2, PP): (53.51%); attack times score, patients (%) (score 4, FAS): (9.12%); attack times score, patients (%) (score 4, PP): (9.55%); attack times score, patients (%) (score 6, FAS): (1.03%); attack times score, patients (%) (score 6, PP): (1.00%); distribution of total angina pectoris score: Medium, number of patients (1 month after treatment): 484; distribution of total angina pectoris score: Medium, percentage of patients (1 month after treatment): (28.24%); distribution of total angina pectoris score: Mild, number of patients (1 month after treatment): 1203; distribution of total angina pectoris score: Mild, percentage of patients (1 month after treatment): (70.19%); distribution of total angina pectoris score: Severe, number of patients (1 month after treatment): 27; distribution of total angina pectoris score: Severe, percentage of patients (1 month after treatment): (1.58%); patients with dose of nitroglycerin score 0 (%) (1 month after treatment): (59.78%); patients with dose of nitroglycerin score 1 (%) (1 month after treatment): (0.29%); patients with dose of nitroglycerin score 2 (%) (1 month after treatment): (28.94%); patients with dose of nitroglycerin score 4 (%) (1 month after treatment): (7.65%); patients with dose of nitroglycerin score 6 (%) (1 month after treatment): (3.34%); total angina pectoris score, Md (1 month after treatment): 6.00; total angina pectoris score, Mean (1 month after treatment): 5.92; change of total angina pectoris score, Md [1]: 0.00; change of total angina pectoris score, Mean [1]: −1.19; patients with change of dose of nitroglycerin score 0 (%) [1]: (80.53%); patients with change of dose of nitroglycerin score 1 (%) [1]: (0.17%); patients with change of dose of nitroglycerin score 2 (%) [1]: (3.92%); patients with change of dose of nitroglycerin score 4 (%) [1]: (1.04%); patients with change of dose of nitroglycerin score 6 (%) [1]: (0.23%); patients with change of dose of nitroglycerin score −1 (%) [1]: (0.00%); patients with change of dose of nitroglycerin score −2 (%) [1]: (11.41%); patients with change of dose of nitroglycerin score −3 (%) [1]: (0.06%); patients with change of dose of nitroglycerin score −4 (%) [1]: (2.13%); patients with change of dose of nitroglycerin score −6 (%) [1]: (0.52%); distribution of total angina pectoris score: Medium, number of patients (3 months after treatment): 397; distribution of total angina pectoris score: Medium, percentage of patients (3 months after treatment): (23.97%); distribution of total angina pectoris score: Mild, number of patients (3 months after treatment): 1241; distribution of total angina pectoris score: Mild, percentage of patients (3 months after treatment): (74.94%); distribution of total angina pectoris score: Severe, number of patients (3 months after treatment): 18; distribution of total angina pectoris score: Severe, percentage of patients (3 months after treatment): (1.09%); patients with dose of nitroglycerin score 0 (%) (3 months after treatment): (61.98%); patients with dose of nitroglycerin score 1 (%) (3 months after treatment): (0.63%); patients with dose of nitroglycerin score 2 (%) (3 months after treatment): (29.58%); patients with dose of nitroglycerin score 4 (%) (3 months after treatment): (5.23%); patients with dose of nitroglycerin score 6 (%) (3 months after treatment): (2.58%); total angina pectoris score, Md (3 months after treatment): 6.00; total angina pectoris score, Mean (3 months after treatment): 5.38; change of total angina pectoris score, Md [2]: 0.00; change of total angina pectoris score, Mean [2]: −1.73; patients with change of dose of nitroglycerin score 0 (%) [2]: (75.23%); patients with change of dose of nitroglycerin score 1 (%) [2]: (0.17%); patients with change of dose of nitroglycerin score 2 (%) [2]: (4.44%); patients with change of dose of nitroglycerin score 4 (%) [2]: (0.69%); patients with change of dose of nitroglycerin score 6 (%) [2]: (0.29%); patients with change of dose of nitroglycerin score −1 (%) [2]: (0.29%); patients with change of dose of nitroglycerin score −2 (%) [2]: (15.15%); patients with change of dose of nitroglycerin score −4 (%) [2]: (2.94%); patients with change of dose of nitroglycerin score −5 (%) [2]: (0.12%); patients with change of dose of nitroglycerin score −6 (%) [2]: (0.69%); distribution of total angina pectoris score: Medium, number of patients (6 months after treatment): 309; distribution of total angina pectoris score: Medium, percentage of patients (6 months after treatment): (19.43%); distribution of total angina pectoris score: Mild, number of patients (6 months after treatment): 1273; distribution of total angina pectoris score: Mild, percentage of patients (6 months after treatment): (80.06%); distribution of total angina pectoris score: Severe, number of patients (6 months after treatment): 8; distribution of total angina pectoris score: Severe, percentage of patients (6 months after treatment): (0.50%); patients with dose of nitroglycerin score 0 (%) (6 months after treatment): (65.38%); patients with dose of nitroglycerin score 1 (%) (6 months after treatment): (0.86%); patients with dose of nitroglycerin score 2 (%) (6 months after treatment): (28.24%); patients with dose of nitroglycerin score 4 (%) (6 months after treatment): (3.62%); patients with dose of nitroglycerin score 6 (%) (6 months after treatment): (1.89%); total angina pectoris score, Md (6 months after treatment): 5.00; total angina pectoris score, Mean (6 months after treatment): 4.78; change of total angina pectoris score, Md [3]: 0.00; change of total angina pectoris score, Mean [3]: −2.34; patients with change of dose of nitroglycerin score 0 (%) [3]: (70.05%); patients with change of dose of nitroglycerin score 1 (%) [3]: (0.40%); patients with change of dose of nitroglycerin score 2 (%) [3]: (4.84%); patients with change of dose of nitroglycerin score 4 (%) [3]: (0.40%); patients with change of dose of nitroglycerin score 6 (%) [3]: (0.35%); patients with change of dose of nitroglycerin score −1 (%) [3]: (0.23%); patients with change of dose of nitroglycerin score −2 (%) [3]: (18.49%); patients with change of dose of nitroglycerin score −3 (%) [3]: (0.00%); patients with change of dose of nitroglycerin score −4 (%) [3]: (4.03%); patients with change of dose of nitroglycerin score −5 (%) [3]: (0.17%); patients with change of dose of nitroglycerin score −6 (%) [3]: (1.04%); distribution of total angina pectoris score: Medium, number of patients (9 months after treatment): 244; distribution of total angina pectoris score: Medium, percentage of patients (9 months after treatment): (15.97%); distribution of total angina pectoris score: Mild, number of patients (9 months after treatment): 1280; distribution of total angina pectoris score: Mild, percentage of patients (9 months after treatment): (83.77%); distribution of total angina pectoris score: Severe, number of patients (9 months after treatment): 4; distribution of total angina pectoris score: Severe, percentage of patients (9 months after treatment): (0.26%); patients with dose of nitroglycerin score 0 (%) (9 months after treatment): (67.11%); patients with dose of nitroglycerin score 1 (%) (9 months after treatment): (1.03%); patients with dose of nitroglycerin score 2 (%) (9 months after treatment): (27.73%); patients with dose of nitroglycerin score 4 (%) (9 months after treatment): (2.41%); patients with dose of nitroglycerin score 6 (%) (9 months after treatment): (1.72%); total angina pectoris score, Md (9 months after treatment): 5.00; total angina pectoris score, Mean (9 months after treatment): 4.39; change of total angina pectoris score, Md [4]: −1.00; change of total angina pectoris score, Mean [4]: −2.72; patients with change of dose of nitroglycerin score 0 (%) [4]: (67.45%); patients with change of dose of nitroglycerin score 1 (%) [4]: (0.35%); patients with change of dose of nitroglycerin score 2 (%) [4]: (4.84%); patients with change of dose of nitroglycerin score 4 (%) [4]: (0.46%); patients with change of dose of nitroglycerin score 6 (%) [4]: (0.35%); patients with change of dose of nitroglycerin score −1 (%) [4]: (0.46%); patients with change of dose of nitroglycerin score −2 (%) [4]: (20.16%); patients with change of dose of nitroglycerin score −3 (%) [4]: (0.12%); patients with change of dose of nitroglycerin score −4 (%) [4]: (4.26%); patients with change of dose of nitroglycerin score −5 (%) [4]: (0.17%); patients with change of dose of nitroglycerin score −6 (%) [4]: (1.38%); distribution of total angina pectoris score: Medium, number of patients (12 months after treatment): 176; distribution of total angina pectoris score: Medium, percentage of patients (12 months after treatment): (11.96%); distribution of total angina pectoris score: Mild, number of patients (12 months after treatment): 1294; distribution of total angina pectoris score: Mild, percentage of patients (12 months after treatment): (87.91%); distribution of total angina pectoris score: Severe, number of patients (12 months after treatment): 2; distribution of total angina pectoris score: Severe, percentage of patients (12 months after treatment): (0.14%); patients with dose of nitroglycerin score 0 (%) (12 months after treatment): (71.58%); patients with dose of nitroglycerin score 1 (%) (12 months after treatment): (1.09%); patients with dose of nitroglycerin score 2 (%) (12 months after treatment): (23.59%); patients with dose of nitroglycerin score 4 (%) (12 months after treatment): (2.07%); patients with dose of nitroglycerin score 6 (%) (12 months after treatment): (1.66%); total angina pectoris score, Md (12 months after treatment): 0.00; total angina pectoris score, Mean (12 months after treatment): 3.83
